Patent US6737383B1, “Herbicidal oxadiazolidines” (priority 1999, dated 2004)

Tests used:
rape = assay: Test B pre/postemergence rape; type: in vivo, Brassica napus
Procedure, shortened: (§1)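 Response is a visual 0-to-10 score relative to untreated plants, where 0 means no effect and 10 means complete control, taken twelve to sixteen days after application. Treatments went onto soil at planting and onto foliage of 1- to 4-leaf plants, using a surfactant-containing non-phytotoxic solvent.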

duck salad = assay: Test B flood test duck salad; type: in vivo, Heteranthera limosa
Procedure, shortened: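 Plants were grown to the 2-leaf stage before treatment with test chemical, then held in a greenhouse for twelve to sixteen days. Injury was visually rated against untreated controls on a 0–10 scale, where 0 is no effect and 10 is complete control.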

morningglory = assay: Test B pre/postemergence morningglory; type: in vivo, Ipomoea hederacea
Procedure, shortened: as §1

wheat = assay: Test B pre/postemergence wheat; type: in vivo, Triticum aestivum
Procedure, shortened: as §1

[1] = Postemergence, Rate 62 g/ha, scale 0 to 10, 0 is no effect, 10 is complete control
[2] = Postemergence, Rate 125 g/ha, scale of 0 to 10 where 0 is no effect and 10 is complete control
[3] = Preemergence, Rate 62 g/ha, scale of 0 to 10 where 0 is no effect and 10 is complete control
[4] = Preemergence, Rate 125 g/ha, scale of 0 to 10 where 0 is no effect and 10 is complete control
[5] = Preemergence, Rate 250 g/ha, scale 0 to 10 (0 no effect, 10 complete control)
[6] = Preemergence, Rate 500 g/ha, scale of 0 to 10 where 0 is no effect and 10 is complete control
[7] = Rate 500 g/ha, Postemergence, scale 0 to 10, 0 is no effect, 10 is complete control
[8] = Postemergence, Rate 250 g/ha, scale 0 to 10, 0 no effect, 10 complete control
[9] = Preemergence, Rate 62 g/ha, scale 0 to 10, 0 is no effect, 10 is complete control
[10] = Preemergence, Rate 125 g/ha, scale 0 to 10 (0 no effect, 10 complete control)
[11] = Preemergence, Rate 250 g/ha, scale of 0 to 10 where 0 is no effect and 10 is complete control
[12] = Preemergence, Rate 500 g/ha, scale 0 (no effect) to 10 (complete control)
[13] = Rate 125 g/ha, Postemergence, scale 0 to 10, 0 no effect, 10 complete control
[14] = Rate 500 g/ha, Postemergence, 0 to 10 scale (0 no effect, 10 complete control)
[15] = Rate 125 g/ha, Postemergence section (flood test species), scale 0 to 10, 0 no effect, 10 complete control
[16] = Rate 500 g/ha, Postemergence section of Table B, 0 to 10 scale (0 no effect, 10 complete control)
[17] = flood test, listed under Postemergence, Rate 250 g/ha, scale 0 to 10, 0 no effect, 10 complete control
[18] = Preemergence, Rate 31 g/ha, visual rating, scale 0 to 10 (0 no effect, 10 complete control)
[19] = Rate 31 g/ha, Postemergence, scale 0 to 10
[20] = Rate 500 g/ha, Postemergence, scale 0 to 10, 0 no effect, 10 complete control

Structure (SMILES): C#CC(C)n1c(=O)on(C(=O)N(c2ccc(Cl)cc2)C(C)C)c1=O (racemic) [Compound 658]
- Plant response rating, Rape (rape; [1]): 0
- Rape plant response rating (rape; [2]): 0
- Rape plant response rating (rape; [3]): 2
- Rape plant response rating (rape; [4]): 5
- Plant response rating, Rape (rape; [5]): 5
- Plant response rating, Rape (rape; [6]): 8
- Rape plant response rating (rape; [7]): 3
- Plant response rating, Ducksalad (0 to 10 scale, 0 is no effect, 10 is complete control) (duck salad; Rate 62 g/ha, flood test species, Pre-emergence, visual evaluation after twelve to sixteen days): 0
- Ducksalad plant response rating (0 to 10 scale, 0 is no effect, 10 is complete control) (duck salad; Rate 125 g/ha, under heading Pre-emergence, flood test species, visual evaluation after twelve to sixteen days): 0
- Ducksalad plant response rating (duck salad; Rate 250 g/ha, Pre-emergence (flood test species), scale 0 to 10, 0 is no effect, 10 is complete control): 0
- Ducksalad plant response rating (duck salad; Rate 500 g/ha, Pre-emergence section of Table B, 0 to 10 scale (0 no effect, 10 complete control)): 0
- Plant response rating, Morningglory (morningglory; [1]): 7
- Morningglory plant response rating (morningglory; [2]): 7
- Morningglory plant response rating (morningglory; Postemergence, Rate 250 g/ha, scale of 0 to 10, 0 is no effect, 10 is complete control): 7
- Morningglory plant response rating (morningglory; [3]): 0
- Morningglory plant response rating (morningglory; [4]): 0
- Plant response rating, Morningglory (morningglory; [5]): 0
- Plant response rating, Morningglory (morningglory; [6]): 0
- Morningglory plant response rating (morningglory; [7]): 10
- Plant response rating, Wheat (wheat; [1]): 0
- Wheat plant response rating (wheat; [2]): 0
- Wheat plant response rating (wheat; [3]): 0
- Wheat plant response rating (wheat; [4]): 0
- Plant response rating, Wheat (wheat; [5]): 0
- Plant response rating, Wheat (wheat; [6]): 3
- Wheat plant response rating (wheat; [7]): 0

Structure (SMILES): Cc1c(Cl)cccc1-n1c(=O)on(C(=O)N(c2ccc(F)cc2)C(C)C)c1=O [Compound 21]
- Rape plant response rating (rape; [1]): 0
- Rape plant response rating (rape; [8]): 0
- Plant response rating, Rape (rape; [9]): 0
- Plant response rating, Rape (rape; [10]): 0
- Plant response rating, Rape (rape; [11]): 0
- Rape plant response rating (rape; [12]): 0
- Rape plant response rating (rape; [13]): 0
- Rape plant response rating (rape; [14]): 0
- Ducksalad plant response rating (duck salad; [1]): 0
- Ducksalad plant response rating (duck salad; [15]): 0
- Ducksalad plant response rating (duck salad; [16]): 0
- Ducksalad plant response rating (duck salad; [17]): 0
- Morningglory plant response rating (morningglory; [1]): 2
- Morningglory plant response rating (morningglory; [8]): 2
- Plant response rating, Morningglory (morningglory; [9]): 0
- Plant response rating, Morningglory (morningglory; [10]): 0
- Plant response rating, Morningglory (morningglory; [11]): 2
- Morningglory plant response rating (morningglory; [12]): 2
- Morningglory plant response rating (morningglory; [13]): 2
- Morningglory plant response rating (morningglory; [14]): 8
- Wheat plant response rating (wheat; [1]): 0
- Wheat plant response rating (wheat; [8]): 0
- Plant response rating, Wheat (wheat; [9]): 0
- Plant response rating, Wheat (wheat; [10]): 0
- Plant response rating, Wheat (wheat; [11]): 0
- Wheat plant response rating (wheat; [12]): 0
- Wheat plant response rating (wheat; [13]): 0

Structure (SMILES): CCN(C(=O)n1oc(=O)n(-c2c(C)cccc2C)c1=O)C1CCCCC1 [Compound 27]
- Rape plant response rating (rape; [1]): 0
- Rape plant response rating (rape; [8]): 0
- Rape plant response rating (rape; [18]): 0
- Plant response rating, Rape (rape; [9]): 0
- Plant response rating, Rape (rape; [10]): 0
- Plant response rating, Rape (rape; [11]): 0
- Rape plant response rating (rape; [19]): 0
- Rape plant response rating (rape; [13]): 0
- Ducksalad plant response rating (duck salad; [1]): 0
- Ducksalad plant response rating (duck salad; [15]): 0
- Ducksalad plant response rating (duck salad; [16]): 0
- Ducksalad plant response rating (duck salad; [17]): 0
- Morningglory plant response rating (morningglory; [1]): 0
- Morningglory plant response rating (morningglory; [8]): 0
- Morningglory plant response rating (morningglory; [18]): 0
- Plant response rating, Morningglory (morningglory; [9]): 0
- Plant response rating, Morningglory (morningglory; [10]): 0
- Plant response rating, Morningglory (morningglory; [11]): 0
- Morningglory plant response rating (morningglory; [19]): 0
- Morningglory plant response rating (morningglory; [13]): 0
- Wheat plant response rating (wheat; [1]): 0
- Wheat plant response rating (wheat; [8]): 0
- Wheat plant response rating (wheat; [18]): 0
- Plant response rating, Wheat (wheat; [9]): 0
- Plant response rating, Wheat (wheat; [10]): 0
- Plant response rating, Wheat (wheat; [11]): 0
- Wheat plant response rating (wheat; [13]): 0

Structure (SMILES): Cc1ccccc1-n1c(=O)on(C(=O)N(c2ccc([N+](=O)[O-])cc2)C(C)C)c1=O [Compound 44]
- Rape plant response rating (rape; [1]): 0
- Rape plant response rating (rape; [8]): 0
- Plant response rating, Rape (rape; [9]): 0
- Plant response rating, Rape (rape; [10]): 0
- Plant response rating, Rape (rape; [11]): 0
- Rape plant response rating (rape; [12]): 0
- Rape plant response rating (rape; [13]): 0
- Rape plant response rating (rape; [14]): 0
- Ducksalad plant response rating (duck salad; [1]): 0
- Ducksalad plant response rating (duck salad; [15]): 0
- Ducksalad plant response rating (duck salad; [16]): 0
- Ducksalad plant response rating (duck salad; [17]): 0
- Morningglory plant response rating (morningglory; [1]): 0
- Morningglory plant response rating (morningglory; [8]): 0
- Plant response rating, Morningglory (morningglory; [9]): 0
- Plant response rating, Morningglory (morningglory; [10]): 0
- Plant response rating, Morningglory (morningglory; [11]): 0
- Morningglory plant response rating (morningglory; [12]): 0
- Morningglory plant response rating (morningglory; [13]): 0
- Morningglory plant response rating (morningglory; [14]): 1
- Wheat plant response rating (wheat; [1]): 0
- Wheat plant response rating (wheat; [8]): 0
- Plant response rating, Wheat (wheat; [9]): 0
- Plant response rating, Wheat (wheat; [10]): 0
- Plant response rating, Wheat (wheat; [11]): 0
- Wheat plant response rating (wheat; [12]): 0
- Wheat plant response rating (wheat; [13]): 0

Structure (SMILES): Cc1cccc(C)c1-n1c(=O)on(C(=O)N(c2ccc(Cl)cc2)C(C)C)c1=O [Compound 47]
- Rape plant response rating (rape; [1]): 0
- Rape plant response rating (rape; [8]): 0
- Plant response rating, Rape (rape; [9]): 0
- Plant response rating, Rape (rape; [10]): 0
- Plant response rating, Rape (rape; [11]): 0
- Rape plant response rating (rape; [12]): 0
- Rape plant response rating (rape; [13]): 0
- Rape plant response rating (rape; [20]): 0
- Ducksalad plant response rating (duck salad; [15]): 0
- Ducksalad plant response rating (duck salad; Rate 125 g/ha, Pre-emergence, flood test species, scale 0 to 10 where 0 is no effect and 10 is complete control): 0
- Ducksalad plant response rating (duck salad; Rate 250 g/ha, headed Pre-emergence (flood test species), scale 0 to 10 (0 no effect, 10 complete control)): 0
- Plant response rating, Ducksalad (duck salad; Rate 500 g/ha, headed Pre-emergence (flood test species), scale 0 to 10 (0 no effect, 10 complete control)): 0
- Ducksalad plant response rating (duck salad; Rate 1000 g/ha, Pre-emergence (as headed), scale 0 to 10): 3
- Ducksalad plant response rating (duck salad; Rate 2000 g/ha, Pre-emergence (as headed), scale 0 to 10): 0
- Morningglory plant response rating (morningglory; [1]): 1
- Morningglory plant response rating (morningglory; [8]): 4
- Plant response rating, Morningglory (morningglory; [9]): 0
- Plant response rating, Morningglory (morningglory; [10]): 0
- Plant response rating, Morningglory (morningglory; [11]): 0
- Morningglory plant response rating (morningglory; [12]): 0
- Morningglory plant response rating (morningglory; [13]): 2
- Morningglory plant response rating (morningglory; [20]): 6
- Wheat plant response rating (wheat; [1]): 0
- Wheat plant response rating (wheat; [8]): 2
- Plant response rating, Wheat (wheat; [9]): 0
- Plant response rating, Wheat (wheat; [10]): 0
- Plant response rating, Wheat (wheat; [11]): 0
- Wheat plant response rating (wheat; [12]): 0
- Wheat plant response rating (wheat; [13]): 0
- Wheat plant response rating (wheat; [20]): 3

Structure (SMILES): CCc1cccc(C)c1-n1c(=O)on(C(=O)N(c2ccc(F)cc2)C(C)C)c1=O [Compound 52]
- Rape plant response rating (rape; [1]): 0
- Rape plant response rating (rape; [8]): 0
- Plant response rating, Rape (rape; [9]): 0
- Plant response rating, Rape (rape; [10]): 0
- Plant response rating, Rape (rape; [11]): 0
- Rape plant response rating (rape; [12]): 0
- Rape plant response rating (rape; [13]): 0
- Rape plant response rating (rape; [20]): 0
- Ducksalad plant response rating (duck salad; [1]): 0
- Ducksalad plant response rating (duck salad; [15]): 0
- Ducksalad plant response rating (duck salad; Rate 500 g/ha, listed under Postemergence (flood test species), scale 0 to 10, 0 no effect, 10 complete control): 0
- Ducksalad plant response rating (duck salad; [17]): 0
- Morningglory plant response rating (morningglory; [1]): 1
- Morningglory plant response rating (morningglory; [8]): 1
- Plant response rating, Morningglory (morningglory; [9]): 0
- Plant response rating, Morningglory (morningglory; [10]): 0
- Plant response rating, Morningglory (morningglory; [11]): 0
- Morningglory plant response rating (morningglory; [13]): 1
- Morningglory plant response rating (morningglory; [20]): 1
- Wheat plant response rating (wheat; [1]): 0
- Wheat plant response rating (wheat; [8]): 0
- Plant response rating, Wheat (wheat; [9]): 0
- Plant response rating, Wheat (wheat; [10]): 0
- Plant response rating, Wheat (wheat; [11]): 0
- Wheat plant response rating (wheat; [12]): 0
- Wheat plant response rating (wheat; [13]): 0
- Wheat plant response rating (wheat; [20]): 0
